# Measurements published in patent US8940498B2, “Biological assays for the characterization of cells using single-cell tracking and uses thereof” (priority 2012, dated 2015).
# Where two headings read alike, the source gives them in different places.
# Legend:
# [1] = tested on: HeLa cells; assay: cells; conditions: Homo sapiens, read-out: Average CQI, % of control
# [2] = tested on: HeLa cells; assay: Classical clonogenic end-point assay; format: cell-based; conditions: 0.25 μM for 30 min
# [3] = tested on: HeLa cells; conditions: for Average CQI: CQI Formula 1
# [4] = HeLa cells, 0.25 μM, normalized by 200 progenitors
# [5] = exposure to non-cytotoxic doses
compound,measurement,setting,value
"CC[C@@]1(O)C(=O)OCc2c1cc1n(c2=O)Cc2cc3ccccc3nc2-1 [CPT, camptothecin]",activity at 0.1 µM,[1],102%
same,activity at 0.25 µM,[1],60%
same,activity at 1 µM,[1],22%
same,cell survival,[2],95%
same,Average CQI,"[3]; HeLa cells, 0.1 μM",9.3
same,CQI (Formula 2),"[3]; HeLa cells, 0.25 μM",0.026
same,total MD versus control,"[3]; HeLa cells, 0.25 μM",reduced
same,Average CQI,"[3]; HeLa cells, 0.25 μM",6.2
same,DD (number of dipolar division events),[3]; [4],1059 ± 95
same,"MD (multipolar division, TD+QD+HD)",[3]; [4],27.0 ± 4.5
same,QD (number of quadripolar division events),[3]; [4],4.0 ± 1.2
same,TD (number of tripolar division events),[3]; [4],23.0 ± 3.2
same,"Total DV (total cell division, DD+TD+QD+HD)",[3]; [4],1086 ± 9.7
same,Average CQI,"[3]; HeLa cells, 1 μM",1.8
same,CD induction and cell growth suppression,"[3]; HeLa cells, at non-cytotoxic dose (0.1 μM CPT, 1 μM MNNG)",neither CD induction nor cell growth suppression
same,non-cytotoxic dose,"[3]; HeLa cells, by average CQI",0.1 µM
same,sub-cytotoxic dose,"[3]; HeLa cells, by average CQI",0.25 µM
CC(=O)Nc1ccc(O)cc1 [acetaminophen],frequency of cells entering MD versus control cell populations,[3],not observed
[Cd] [cadmium],frequency of cells entering MD versus control cell populations,[3]; [5],more frequently found than control cell populations
C=O [formaldehyde],frequency of cells entering MD versus control cell populations,[3],more frequently found than control cell populations
same,non-cytotoxic dose,[3]; human,0.002 to 0.18 µM
CC(C)Cc1ccc(C(C)C(=O)O)cc1 (centres unmarked) [ibuprofen],frequency of cells entering MD versus control cell populations,[3]; [5],not observed
arsenic acid,frequency of cells entering MD versus control cell populations,[3]; [5],more frequently found than control cell populations
